Here are results for ten compounds from US20250049678A1, “COMPOUNDS ATTACHABLE TO SKIN” (Inkbox Ink Incorporated, priority 2021, published 2025).

Data set [1] in a line: UV/visible absorbance after reacting the compound with lysine to mimic skin binding. The data set is classed as physicochemical. The settings on record: for absorbance properties / color of the dye compound after binding to lysine: versus the dye compound prior to conjugation with lysine, in solution, FIG. 3D; for visible color after reaction with lysine / UV-light absorption after reaction with lysine: lysine conjugate, mimic of skin binding; for visible color after reaction with lysine: absorbance at wavelengths above 410 nm; for UV-light absorption after reaction with lysine: absorbance at wavelengths below 410 nm; for shift in UV absorbance peak on reaction with lysine: compound versus its lysine conjugate; for UV blocking activity: FIG. 6, salicylic acid as such, attached to hydrogenated genipin anchor, and bound to skin mimic. An excerpt:
A hydrogenated genipin derivative (compound 1) was conjugated with lysine to obtain compound 1-lysine conjugate:
The azo-dye compound of example 5 was conjugated with lysine to obtain a conjugate:
The compound of Example 7 was conjugated with lysine to obtain the lysine conjugate:
The OL compound of example 8 was conjugated with lysine to obtain OL-lysine conjugate: […]

The subject of data set [2] is skin substrate (a porcine skin explant). Put plainly: Sunscreen application on skin substrate: UV-light absorption and retention after wiping, washing and scrubbing. From the text:
When referring to protective groups hydrolysable under physiological conditions after application of the topical composition onto the skin here and elswhere in the dislcosure: Such groups are readily known to the skilled person and include, in particular acyl moieties such as optionally substituted acyl moieties comprising 1 to 30, more specifically 1 to 16, and in particular 1 to 12, carbon atoms; 0 to 12, more specifically 0 to 8, and in particular 0 to 6 oxygen atoms; 0 to 8, more specifically 0 to 6, and in particular 0 to 4 nitrogen atoms; 0 to 6, more specifically 0 to 4, and in particular 0 to 3 sulfur atoms; and 0 to 10, more specifically 0 to 8, and in particular 0 to 6 halogen atoms. Specific examples include C1-C18 acyl moieties, more specifically C1-C12 acyl moieties and in particular […]. When referring in this context to “physiological conditions” it should be understood that this in particular refers to the pH conditions encountered at the locus where the compound of formula (I) is supposed to bind to proteins in e.g. the stratum corneum and/or the epidermis of the (mammalian, in particular human) subject to be treated. […]

SMILES strings stand for the structures.

For `COC(=O)C1=COC(O)C2C(COC(=O)c3ccc(/N=N/c4ccccc4)cc3)CCC12` (stereo not drawn) [Example 5, methyl (E)-1-hydroxy-7-(((4-(phenyldiazenyl)benzoyl)oxy)methyl)-1,4a,5,6,7,7a-hexahydrocyclopenta[c]pyran-4-carboxylate], the “absorbance properties / color of the dye compound after binding to lysine” value in data set [1] is on record as “does not alter absorbance properties”; in data set [1] (listed as azo-dye-anchor molecule), “retains its original color”.

As to `COC(=O)C1=CN(CCCCC(N)C(=O)O)C=C2C(C)CCC12` (stereo not drawn) [compound 1-lysine conjugate], in data set [1], the “visible color after reaction with lysine” value was “no visible color” and the “UV-light absorption after reaction with lysine” value is recorded as “strong UV-light absorption”.

Consider `CCCCC(CC)COC(=O)c1ccccc1O` (stereo not drawn) [octisalate], for which the “UV-light absorption on the skin substrate and removability after wiping” value in data set [2] (50 mM solutions, 2 and 4 hours after application, wiped with a wet tissue at 4 hours, UV light 254 nm, FIG. 4) is on record as “easily removable from the skin”. For the same compound, the “UV-light absorption / presence on the skin substrate after washing and scrubbing” value in data set [2] (24 and 26 hours total contact time, submerged in water for 2 hours and scrubbed vigorously, UV camera with UV-B filter, FIG. 5) was “no longer present”.

Consider `COC(=O)C1=COC(O)C2C(C)CCC12` (stereo not drawn) [Compound 1, methyl 1-hydroxy-7-methyl-1,4a,5,6,7,7a-hexahydrcyclopenta[c]pyran-4-carboxylate], for which, in data set [1], the “shift in UV absorbance peak on reaction with lysine” value (from here on “shift in UV absorbance peak”) was “small shift”, the “visible color after reaction with lysine” value is reported as “no visible color” and the “UV-light absorption after reaction with lysine” value is given as “strong UV-absorption”.

Regarding `COC(=O)C1=CN(CCCCC(N)C(=O)O)C=C2C(COC(=O)c3ccccc3O)CCC12` (stereo not drawn), in data set [1], the “visible color after reaction with lysine” value is recorded as “no visible color” and the “UV-light absorption after reaction with lysine” value is “strong UV-light absorption”.

With `C/C=C1/[C@H](O)OC=C(C(=O)OC)[C@H]1CC(=O)OCCc1ccc(O)c(O)c1` [OL, methyl (4s,5e,6r)-4-[2-[2-(3,4-dihydroxyphenyl)ethoxy]-2-oxoethyl]-5-ethylidene-6-hydroxy-4h-pyran-3-carboxylate], in data set [1], the “shift in UV absorbance peak” value is “small shift in UV absorbance peak” and the “visible color after reaction with lysine” value was “almost no visible color”.

Turning to `C=CC1=CN(CCCCC(N)C(=O)O)C=C(C(=O)OC)C1CC(=O)OCCc1ccc(O)c(O)c1` (stereo not drawn), in data set [1], the “visible color after reaction with lysine” value was “no visible color” and the “UV-light absorption after reaction with lysine” value was “strong UV-light absorption”.

For the compound `O=C(O)c1ccccc1O` [salicylic acid, reference compound], the UV blocking activity entry in data set [1] is given as “UV blocking agent”.

Turning to `COC(=O)C1=COC(O)C2C(CO)CCC12` (stereo not drawn) [Compound 2, methyl 1-hydroxy-7-(hydroxymethyl)-1,4a,5,6,7,7a-hexahydrocyclopenta[c]pyran-4-carboxylate], in data set [1], the “visible color after reaction with lysine” value is given as “no visible color” and the “UV-light absorption after reaction with lysine” value was “strong UV-light absorption”.

On to `COC(=O)C1=COC(O)C2C(COC(=O)c3ccccc3O)CCC12` (stereo not drawn) [Example 7, methyl 1-hydroxy-7-(((2-hydroxybenzoyl)oxy)methyl)-1,4a,5,6,7,7a-hexahydrocyclopenta[c]pyran-4-carboxylate], for which, in data set [1], the UV blocking activity result is reported as “retained”, the “shift in UV absorbance peak” value is “small shift in UV absorbance peak” and the “visible color after reaction with lysine” value is on record as “no visible color is produced”.
